Experimental data taken from article PMC1888807 (2007).

Tests used:
[1] = test system: H78 (DNA, G4) TTAGGGTTAGGGTTAGGGTTAGGGTTAGGGTTAGGGTTAGGGTTAGGGTTAGGGTTAGGGTTAGGGTTAGGGTTAGGG; test: melting; conditions: 150 mM Na+; 10 mM Tris-HCl pH 7.5; BMVC:H78 molar ratio 10; ~51 to ~68 °C
[2] = test system: H24 (DNA, G4) TTAGGGTTAGGGTTAGGGTTAGGG; test: CD melting at 295 nm; conditions: 150 mM Na+; 10 mM Tris-HCl pH 7.5; BMVC:H24 molar ratio 5

- melting temperature increase [1]: ~ 17 °C
- melting temperature increase [2]: 18 °C
SMILES: C[n+]1ccc(C=Cc2ccc3[nH]c4ccc(C=Cc5cc[n+](C)cc5)cc4c3c2)cc1
